The values that follow come from patent US7488811B2, “Macrolide compounds endowed with antiinflammatory activity” (Zambon Group S.p.A., priority 2002, dated 2009).

For test [1], the system named is PMA-induced oedema in mouse ear. As to the kind of experiment: Acute contact dermatitis: TPA (PMA)-induced ear oedema in mice. It is filed as in vivo. The following applies: CD1 mice, 500 μg/ear topical in TPDS 30 min before TPA 0.01%, 6 h. How it is done:
Groups of 5-6 CD1 mice (18-24 g) were used. • Administration of the compounds
All the macrolide compounds were dissolved in Trans-phase Delivery System (TPDS), a vehicle formed by 10% benzyl alcohol, 40% acetone and 50% isopropanol.
15 microlitres of the compounds (500 μg), dissolved in TPDS, were applied topically to the inner surface of an ear; 30 minutes later, 12 microlitres of a solution of tetradecanoylphorbol acetate (TPA) at a concentration of 0.01% dissolved in acetone were applied to the same area.
Six hours later, the animals were sacrificed by inhalation of CO2. • Evaluation of the results
Two methods were used to evaluate the auricular oedema: • a) Weight of a given portion of auricular pinna. • b) Measurement of the auricular thickness using precision spring callipers.
The degree of oedema was calculated by subtracting the weight or the thickness of the untreated ear from that of the contralateral treated ear. To determine the degree of remission of the oedema, the difference (weight or thickness) of the groups treated with TPA+macrolides was then compared with the groups treated with TPA alone.
The activity of the macrolide compounds was measured by using the modified method of Zunic et al. (1998): MDL (Lysyl) GDP, a non-toxic muramyl dipeptide derivative inhibits cytokine production by activated macrophages and protects mice from phorbol ester- and oxazolone-induced inflammation (J. Invest. Dermatol., 111(1), 77-82).
The data relating to erythromycin and azythromycin concern the treatment with a single dose of 500 μg/ear.

For test [2], the system named is Staphylococcus aureus ATCC 29213. As to the kind of experiment: Antibiotic activity, MIC in liquid medium. Conditions: ATCC29213, Staph. aureus ATCC 29213. The test is classed as cell-based. How it is done:
(§1) The MIC values were determined in liquid earth according to the method described in “Manual of Clinical Microbiology, 7th edition (1999), American Society for Microbiology”.

In test [3] the test system is Streptococcus pneumoniae ATCC 49619. As to the kind of experiment: Antibiotic activity, MIC in liquid medium. It is filed as cell-based. Conditions: ATCC49619, Strep. pneum ATTC 49619. The method, then: as §1
In test [4] the test system is Enterococcus faecalis ATCC 29212. The test is described as follows: Antibiotic activity, MIC or activity at 128 μg/ml. The following applies: Enter. faecalis ATCC 29212; for MIC: Enterococcus faecalis, ATCC29212. It is filed as cell-based. The method, then:
as §1

The subject of test [5] is Staphylococcus aureus ATCC 6538. As to the kind of experiment: Antibiotic activity at 128 μg/ml. The test is classed as cell-based. Conditions: Staph. aureus ATCC 6538; 128 μg/ml. How it is done:
as §1

Test [6] concerns Streptococcus pyogenes ATCC 19615. As to the kind of experiment: Antibiotic activity at 128 μg/ml. Conditions: Strep. pyogenes ATTC 19615; 128 μg/ml. The test is classed as cell-based. How it is done:
as §1

The mark [7] stands for this setting: method a: weight of a given portion of auricular pinna.
Where [8] appears, read: method b: auricular thickness by precision spring callipers.

SMILES strings stand for the structures.

`CC[C@H]1OC(=O)[C@H](C)[C@@H](O[C@H]2C[C@@](C)(OC)[C@@H](O)[C@H](C)O2)[C@H](C)[C@@H](O[C@@H]2O[C@H](C)C[C@H](N(C)C)[C@H]2O)[C@](C)(O)C[C@@H](C)CN(C)[C@H](C)[C@@H](O)[C@]1(C)O` [Azythromycin, reference compound] yielded an inhibition in vivo at 500 µg/ear in test [1] (setting [7]) of 40%.

The compound `CC[C@H]1OC(=O)[C@H](C)[C@@H](O)[C@H](C)[C@@H](O[C@@H]2O[C@H](C)C[C@H](N(C)C)[C@H]2O)C(C)(O)C[C@@H](C)[C@H](O)[C@H](C)[C@@H](O)[C@]1(C)O` (some centres unmarked) [Compound 2] showed an inhibition in vivo at 500 µg/ear in test [1] (setting [7]) of 36.2%. Moreover, the MIC in test [2], in test [3] and in test [4] was over 128 µg/mL in each case. Moreover, the “Antibiotic activity at 128 μg/ml” value in test [4], in test [5] and in test [6] was “not active” throughout.

Take `CC[C@H]1OC(=O)[C@H](C)[C@@H](O)[C@H](C)[C@@H](O[C@@H]2O[C@H](C)C[C@H]([N+](C)(C)[O-])[C@H]2O)C(C)(O)C[C@@H](C)[C@H](O)[C@H](C)[C@@H](O)[C@]1(C)O` (some centres unmarked) [Compound 3]: in test [1] (setting [7]), the inhibition in vivo at 500 µg/ear amounted to 65.2%. Also, the MIC in test [2], in test [3] and in test [4] was over 128 µg/mL each time. Moreover, the “Antibiotic activity at 128 μg/ml” value in test [4], in test [5] and in test [6] was “not active” throughout.

For the compound `CC[C@H]1OC(=O)[C@H](C)[C@@H](O)[C@H](C)[C@@H](O[C@@H]2O[C@H](C)CC(N(C)CCCNCc3nccs3)[C@H]2O)C(C)(O)C[C@@H](C)[C@H](O)[C@H](C)[C@@H](O)[C@]1(C)O` (some centres unmarked) [Compound 5], the inhibition in vivo at 500 µg/ear in test [1] (setting [7]) came out at 53.4%.

In test [1] (setting [7]), `CC[C@H]1OC(=O)[C@H](C)[C@@H](O)[C@H](C)[C@@H](O[C@@H]2O[C@H](C)CC(N(C)C(=O)CNCCN(C)C)[C@H]2O)C(C)(O)C[C@@H](C)[C@H](O)[C@H](C)[C@@H](O)[C@]1(C)O` (some centres unmarked) [Compound 6] yielded an inhibition in vivo at 500 µg/ear of 30.9%.

Compound `CC[C@H]1OC(=O)[C@H](C)[C@@H](O)[C@H](C)[C@@H](O[C@@H]2O[C@H](C)C[C@H](N(C)CCNCCNCc3nccs3)[C@H]2O)[C@@](C)(O)C[C@@H](C)[C@H](O)[C@H](C)[C@@H](O)[C@]1(C)O` [Compound 7] showed an inhibition in vivo at 500 µg/ear in test [1] (setting [7]) of 45%.

Turning to `CC[C@H]1OC(=O)[C@H](C)[C@@H](O)[C@H](C)[C@@H](O[C@@H]2O[C@H](C)C=C[C@H]2O)C(C)(O)C[C@@H](C)[C@H](O)[C@H](C)[C@@H](O)[C@]1(C)O` (some centres unmarked) [Compound 9], the inhibition in vivo at 500 µg/ear in test [1] (setting [7]) turned out to be 32.4%.

Compound `CC[C@H]1OC(=O)[C@H](C)[C@@H](O)[C@H](C)[C@@H](O[C@@H]2O[C@H](C)C[C@H](N(C)C)[C@H]2O)C(C)(O)C[C@@H](C)/C(=N\O)[C@H](C)[C@@H](O)[C@]1(C)O` (some centres unmarked) [Compound 11] returned an inhibition in vivo at 500 µg/ear in test [1] (setting [7]) of 70.2%. In addition, the MIC in test [2], in test [3] and in test [4] was over 128 µg/mL throughout. Further, the “Antibiotic activity at 128 μg/ml” value in test [4], in test [5] and in test [6] was “not active” each time.

In the case of `CC[C@H]1OC(=O)[C@H](C)[C@@H](O)[C@H](C)[C@@H](O[C@@H]2O[C@H](C)C[C@H]([N+](C)(C)[O-])[C@H]2O)C(C)(O)C[C@@H](C)/C(=N\O)[C@H](C)[C@@H](O)[C@]1(C)O` (some centres unmarked) [Compound 12], the inhibition in vivo at 500 µg/ear in test [1] (setting [7]) is 87.4%. The MIC in test [2], in test [3] and in test [4] was over 128 µg/mL each time. Also, the “Antibiotic activity at 128 μg/ml” value in test [4], in test [5] and in test [6] was “not active” each time.

With `CC[C@H]1OC(=O)[C@H](C)[C@@H](O)[C@H](C)[C@@H](O[C@@H]2O[C@H](C)C=C[C@H]2O)C(C)(O)C[C@@H](C)/C(=N\O)[C@H](C)[C@@H](O)[C@]1(C)O` (some centres unmarked) [Compound 13], the inhibition in vivo at 500 µg/ear in test [1] (setting [7]) worked out at 77.4%. The MIC in test [2], in test [3] and in test [4] was over 128 µg/mL each time. Besides, the “Antibiotic activity at 128 μg/ml” value in test [4], in test [5] and in test [6] was “not active” each time.

`CC[C@H]1OC(=O)[C@H](C)[C@@H](O)[C@H](C)[C@@H](O[C@@H]2O[C@H](C)C[C@H](N(C)C)[C@H]2O)C(C)(O)C[C@@H](C)/C(=N\OC)[C@H](C)[C@@H](O)[C@]1(C)O` (some centres unmarked) [Compound 15] registered an inhibition in vivo at 500 µg/ear in test [1] (setting [7]) of 31.6%. Further, the “Antibiotic activity at 128 μg/ml” value in test [4], in test [5] and in test [6] was “not active” each time.

In test [1] (setting [7]), `CC[C@H]1OC(=O)[C@H](C)[C@@H](O)[C@H](C)[C@@H](O[C@@H]2O[C@H](C)C[C@H]([N+](C)(C)[O-])[C@H]2O)C(C)(O)C[C@@H](C)/C(=N\OC)[C@H](C)[C@@H](O)[C@]1(C)O` (some centres unmarked) [Compound 16] returned an inhibition in vivo at 500 µg/ear of 72.3%.

For the compound `CC[C@H]1OC(=O)[C@H](C)[C@@H](O)[C@H](C)[C@@H](O[C@@H]2O[C@H](C)C=C[C@H]2O)C(C)(O)C[C@@H](C)/C(=N\OC)[C@H](C)[C@@H](O)[C@]1(C)O` (some centres unmarked) [Compound 17], the inhibition in vivo at 500 µg/ear in test [1] (setting [7]) is 41.9%.

As to `CC[C@H]1OC(=O)[C@H](C)[C@@H](O)[C@H](C)[C@H](O[C@@H]2O[C@H](C)CC([N+](C)(C)[O-])[C@@H]2O)[C@](C)(O)C[C@@H](C)/C(=N\OCCNCCNCc2nccs2)[C@H](C)[C@H](O)[C@]1(C)O` (some centres unmarked) [Compound 20], in test [1] (setting [8]), the inhibition in vivo at 500 µg/ear came to 49.9%. Further, the MIC in test [2], in test [3] and in test [4] was over 128 µg/mL in each case.

In turn, `CC[C@H]1OC(=O)[C@H](C)[C@@H](O)[C@H](C)[C@H](O[C@@H]2O[C@H](C)CC[C@@H]2O)[C@](C)(O)C[C@@H](C)/C(=N\OCCNCCNCc2nccs2)[C@H](C)[C@H](O)[C@]1(C)O` [Compound 21] returned an inhibition in vivo at 500 µg/ear in test [1] (setting [8]) of 74.1%. Moreover, the MIC in test [2], in test [3] and in test [4] was over 128 µg/mL in each case. For the same compound, the “Antibiotic activity at 128 μg/ml” value in test [4], in test [5] and in test [6] was “not active” throughout.

On to `CC[C@H]1OC(=O)[C@H](C)[C@@H](O)[C@H](C)[C@@H](O[C@@H]2O[C@H](C)CC[C@H]2O)C(C)(O)C[C@@H](C)/C(=N\OCCNCCNCc2ccco2)[C@H](C)[C@@H](O)[C@]1(C)O` (some centres unmarked) [Compound 26], for which the “Antibiotic activity at 128 μg/ml” value in test [4], in test [5] and in test [6] was “not active” each time.

As for `CC[C@H]1OC(=O)[C@H](C)[C@@H](O)[C@H](C)[C@@H](O[C@@H]2O[C@H](C)C[C@H](N(C)C)[C@H]2O)C(C)(OC)C[C@@H](C)[C@H](O)[C@H](C)[C@@H](O)[C@]1(C)O` (some centres unmarked) [Compound 27], the MIC in test [2], in test [3] and in test [4] was over 128 µg/mL throughout.

Consider `CC[C@H]1OC(=O)[C@H](C)[C@@H](O)[C@H](C)[C@H](OC2O[C@H](C)C[C@H](N(C)C(C)=O)[C@@H]2O)C(C)(OC)C[C@H](C)/C(=N\O)[C@H](C)[C@@H](O)[C@]1(C)O` (some centres unmarked) [Compound 29], for which, in test [1] (setting [7]), the inhibition in vivo at 500 µg/ear was 44.5%.

On to `CC[C@H]1OC(=O)[C@H](C)[C@@H](O)[C@H](C)[C@H](OC2O[C@H](C)C[C@H](N(C)CCCOCc3cccnc3)[C@@H]2O)C(C)(O)C[C@H](C)[C@H](O)[C@H](C)[C@@H](O)[C@]1(C)O` (some centres unmarked) [Compound 30], for which the inhibition in vivo at 500 µg/ear in test [1] (setting [7]) turned out to be 39.8%.
